{
  "source": "the supplement of paper PMC11208160",
  "data": [
    {"experiment": "recombinant UMI read abundance after kanamycin selection (control-corrected) (log10(CPM+1)); higher = more efficient recombination; extreme values may be limits of the assay; sequences stand for … in AGTGCAGAGAAAATCGGCCAGTTTTCTCTGCCTGCAGTCCGCATGCCGTGGGACCCCTTGGGTTCTAACCTGTTGCCTAGATTTATGCAGCGGACTGCCTTTCTCCCAAAGTGATAAACCGG…AGGTTGGTTTCACT; site = the 11-nt donor", "outline": "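Each donor and donor-binding-loop pair was tracked by a 12-nt UMI on a plasmid carrying a promoterless kanamycin gene. With a second plasmid supplying a fixed target and T7-inducible IS621 bridge recombinase, the pool was plated in Escherichia coli on IPTG (0.07 mM) plus kanamycin or unselected. Sequencing of recombinant UMIs across the donor–target junction gave counts expressed as log10(CPM+1) after replicate averaging and control-derived scaling.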", "values": [
      {"sequence": "GTACGAGCATGGACCGGTTTTCCCGGTAATCCGTATTTGCA (site GTACGAGCTTG)", "recombinant UMI read abundance (log10)": 2.55},
      {"sequence": "GTACGAGCATGGACCGGTTTTCCCGGTAATCCGTATTTGCA (site GTCCGAGCTTG)", "recombinant UMI read abundance (log10)": 0.87},
      {"sequence": "GTACGAGCATGGACCGGTTTTCCCGGTAATCCGTATTTGCA (site GTGCGAGCTTG)", "recombinant UMI read abundance (log10)": 2.02},
      {"sequence": "GTACGAGCATGGACCGGTTTTCCCGGTAATCCGTATTTGCA (site GTTCGAGCTTG)", "recombinant UMI read abundance (log10)": 0.659},
      {"sequence": "GTACTAACATGGACCGGTTTTCCCGGTAATCCGTATTTGGA (site ATACTAACTTC)", "recombinant UMI read abundance (log10)": 0.569},
      {"sequence": "GTACTAACATGGACCGGTTTTCCCGGTAATCCGTATTTGGA (site CTACTAACTTC)", "recombinant UMI read abundance (log10)": 0.455},
      {"sequence": "GTACTAACATGGACCGGTTTTCCCGGTAATCCGTATTTGGA (site GTACTAACTTC)", "recombinant UMI read abundance (log10)": 1.29},
      {"sequence": "GTACTAACATGGACCGGTTTTCCCGGTAATCCGTATTTGGA (site TTACTAACTTC)", "recombinant UMI read abundance (log10)": 0.593},
      {"sequence": "GTAGATACATGGACCGGTTTTCCCGGTAATCCGTATTTGAC (site GTAGATACTGT)", "recombinant UMI read abundance (log10)": 2.29},
      {"sequence": "GTAGATACATGGACCGGTTTTCCCGGTAATCCGTATTTGAC (site GTAGCTACTGT)", "recombinant UMI read abundance (log10)": 0},
      {"sequence": "GTAGATACATGGACCGGTTTTCCCGGTAATCCGTATTTGAC (site GTAGGTACTGT)", "recombinant UMI read abundance (log10)": 1.38},
      {"sequence": "GTAGATACATGGACCGGTTTTCCCGGTAATCCGTATTTGAC (site GTAGTTACTGT)", "recombinant UMI read abundance (log10)": 0.903},
      {"sequence": "GTAGATTCATGGACCGGTTTTCCCGGTAATCCGTATTTGCA (site GTAGATTCTTG)", "recombinant UMI read abundance (log10)": 2.86},
      {"sequence": "GTAGCAGCATGGACCGGTTTTCCCGGTAATCCGTATTTGGA (site GTAGCAGCTTC)", "recombinant UMI read abundance (log10)": 0.62},
      {"sequence": "GTAGCTCCATGGACCGGTTTTCCCGGTAATCCGTATTTGAA (site GTAGCTCCTTT)", "recombinant UMI read abundance (log10)": 1},
      {"sequence": "GTAGGGACATGGACCGGTTTTCCCGGTAATCCGTATTTGAC (site GTAGGAACTGT)", "recombinant UMI read abundance (log10)": 2.21},
      {"sequence": "GTAGGGACATGGACCGGTTTTCCCGGTAATCCGTATTTGAC (site GTAGGCACTGT)", "recombinant UMI read abundance (log10)": 2.04},
      {"sequence": "GTAGGGACATGGACCGGTTTTCCCGGTAATCCGTATTTGAC (site GTAGGGACTGT)", "recombinant UMI read abundance (log10)": 2.63},
      {"sequence": "GTAGGGACATGGACCGGTTTTCCCGGTAATCCGTATTTGAC (site GTAGGTACTGT)", "recombinant UMI read abundance (log10)": 1.87},
      {"sequence": "GTAGGTACATGGACCGGTTTTCCCGGTAATCCGTATTTGTT (site GTAGGTACTAA)", "recombinant UMI read abundance (log10)": 1.01},
      {"sequence": "GTAGGTCCATGGACCGGTTTTCCCGGTAATCCGTATTTGAC (site GTAGGTACTGT)", "recombinant UMI read abundance (log10)": 0},
      {"sequence": "GTAGGTCCATGGACCGGTTTTCCCGGTAATCCGTATTTGAC (site GTAGGTCCTGT)", "recombinant UMI read abundance (log10)": 0},
      {"sequence": "GTAGGTCCATGGACCGGTTTTCCCGGTAATCCGTATTTGAC (site GTAGGTGCTGT)", "recombinant UMI read abundance (log10)": 0},
      {"sequence": "GTAGGTCCATGGACCGGTTTTCCCGGTAATCCGTATTTGAC (site GTAGGTTCTGT)", "recombinant UMI read abundance (log10)": 0},
      {"sequence": "GTAGGTTCATGGACCGGTTTTCCCGGTAATCCGTATTTGAC (site GTAGGTACTGT)", "recombinant UMI read abundance (log10)": 1.88},
      {"sequence": "GTAGGTTCATGGACCGGTTTTCCCGGTAATCCGTATTTGAC (site GTAGGTCCTGT)", "recombinant UMI read abundance (log10)": 1.78},
      {"sequence": "GTAGGTTCATGGACCGGTTTTCCCGGTAATCCGTATTTGAC (site GTAGGTGCTGT)", "recombinant UMI read abundance (log10)": 0},
      {"sequence": "GTAGGTTCATGGACCGGTTTTCCCGGTAATCCGTATTTGAC (site GTAGGTTCTGT)", "recombinant UMI read abundance (log10)": 2.46},
      {"sequence": "GTAGTATCATGGACCGGTTTTCCCGGTAATCCGTATTTGAT (site CTAGTATCTGT)", "recombinant UMI read abundance (log10)": 1.05},
      {"sequence": "GTAGTATCATGGACCGGTTTTCCCGGTAATCCGTATTTGAT (site GTAGTATCTAT)", "recombinant UMI read abundance (log10)": 3.08},
      {"sequence": "GTAGTGGCATGGACCGGTTTTCCCGGTAATCCGTATTTGGT (site GAAGTGGCTAC)", "recombinant UMI read abundance (log10)": 0.458},
      {"sequence": "GTAGTGGCATGGACCGGTTTTCCCGGTAATCCGTATTTGGT (site GCAGTGGCTAC)", "recombinant UMI read abundance (log10)": 0.771},
      {"sequence": "GTAGTGGCATGGACCGGTTTTCCCGGTAATCCGTATTTGGT (site GGAGTGGCTAC)", "recombinant UMI read abundance (log10)": 0.028},
      {"sequence": "GTAGTGGCATGGACCGGTTTTCCCGGTAATCCGTATTTGGT (site GTAGTGGCTAC)", "recombinant UMI read abundance (log10)": 1.85},
      {"sequence": "GTAGTGTCATGGACCGGTTTTCCCGGTAATCCGTATTTGAC (site CTAGTATCTGT)", "recombinant UMI read abundance (log10)": 2.03},
      {"sequence": "GTAGTGTCATGGACCGGTTTTCCCGGTAATCCGTATTTGAC (site GTAGTGTCTGT)", "recombinant UMI read abundance (log10)": 3.23},
      {"sequence": "GTAGTTTCATGGACCGGTTTTCCCGGTAATCCGTATTTGTA (site GTAGTTTCTTA)", "recombinant UMI read abundance (log10)": 2.61},
      {"sequence": "GTATGCACATGGACCGGTTTTCCCGGTAATCCGTATTTGCA (site GTATGCACTTA)", "recombinant UMI read abundance (log10)": 0.546},
      {"sequence": "GTATGCACATGGACCGGTTTTCCCGGTAATCCGTATTTGCA (site GTATGCACTTC)", "recombinant UMI read abundance (log10)": 0.0124},
      {"sequence": "GTATGCACATGGACCGGTTTTCCCGGTAATCCGTATTTGCA (site GTATGCACTTG)", "recombinant UMI read abundance (log10)": 2.67},
      {"sequence": "GTATGCACATGGACCGGTTTTCCCGGTAATCCGTATTTGCA (site GTATGCACTTT)", "recombinant UMI read abundance (log10)": 0.427},
      {"sequence": "GTATGCACATGGACCGGTTTTCCCGGTAATCCGTATTTGTA (site ATATGCACTTA)", "recombinant UMI read abundance (log10)": 0.664},
      {"sequence": "GTATGCACATGGACCGGTTTTCCCGGTAATCCGTATTTGTA (site CTATGCACTTA)", "recombinant UMI read abundance (log10)": 0.712},
      {"sequence": "GTATGCACATGGACCGGTTTTCCCGGTAATCCGTATTTGTA (site GAATGCACTTA)", "recombinant UMI read abundance (log10)": 0.0229},
      {"sequence": "GTATGCACATGGACCGGTTTTCCCGGTAATCCGTATTTGTA (site GCATGCACTTA)", "recombinant UMI read abundance (log10)": 0.671},
      {"sequence": "GTATGCACATGGACCGGTTTTCCCGGTAATCCGTATTTGTA (site GGATGCACTTA)", "recombinant UMI read abundance (log10)": 0.58},
      {"sequence": "GTATGCACATGGACCGGTTTTCCCGGTAATCCGTATTTGTA (site GTAAGCACTTA)", "recombinant UMI read abundance (log10)": 0.776},
      {"sequence": "GTATGCACATGGACCGGTTTTCCCGGTAATCCGTATTTGTA (site GTACGCACTTA)", "recombinant UMI read abundance (log10)": 1.72},
      {"sequence": "GTATGCACATGGACCGGTTTTCCCGGTAATCCGTATTTGTA (site GTAGGCACTTA)", "recombinant UMI read abundance (log10)": 0.461},
      {"sequence": "GTATGCACATGGACCGGTTTTCCCGGTAATCCGTATTTGTA (site GTATACACTTA)", "recombinant UMI read abundance (log10)": 2.07},
      {"sequence": "GTATGCACATGGACCGGTTTTCCCGGTAATCCGTATTTGTA (site GTATCCACTTA)", "recombinant UMI read abundance (log10)": 0.28},
      {"sequence": "GTATGCACATGGACCGGTTTTCCCGGTAATCCGTATTTGTA (site GTATGAACTTA)", "recombinant UMI read abundance (log10)": 0.66},
      {"sequence": "GTATGCACATGGACCGGTTTTCCCGGTAATCCGTATTTGTA (site GTATGCACTAA)", "recombinant UMI read abundance (log10)": 0.126},
      {"sequence": "GTATGCACATGGACCGGTTTTCCCGGTAATCCGTATTTGTA (site GTATGCACTCA)", "recombinant UMI read abundance (log10)": 0.0356},
      {"sequence": "GTATGCACATGGACCGGTTTTCCCGGTAATCCGTATTTGTA (site GTATGCACTGA)", "recombinant UMI read abundance (log10)": 1.72},
      {"sequence": "GTATGCACATGGACCGGTTTTCCCGGTAATCCGTATTTGTA (site GTATGCACTTA)", "recombinant UMI read abundance (log10)": 2.07},
      {"sequence": "GTATGCACATGGACCGGTTTTCCCGGTAATCCGTATTTGTA (site GTATGCACTTC)", "recombinant UMI read abundance (log10)": 0.0256},
      {"sequence": "GTATGCACATGGACCGGTTTTCCCGGTAATCCGTATTTGTA (site GTATGCACTTG)", "recombinant UMI read abundance (log10)": 1.71},
      {"sequence": "GTATGCACATGGACCGGTTTTCCCGGTAATCCGTATTTGTA (site GTATGCACTTT)", "recombinant UMI read abundance (log10)": 0.44},
      {"sequence": "GTATGCACATGGACCGGTTTTCCCGGTAATCCGTATTTGTA (site GTATGCCCTTA)", "recombinant UMI read abundance (log10)": 0.0248},
      {"sequence": "GTATGCACATGGACCGGTTTTCCCGGTAATCCGTATTTGTA (site GTATGCGCTTA)", "recombinant UMI read abundance (log10)": 0.376},
      {"sequence": "GTATGCACATGGACCGGTTTTCCCGGTAATCCGTATTTGTA (site GTATGCTCTTA)", "recombinant UMI read abundance (log10)": 1.19},
      {"sequence": "GTATGCACATGGACCGGTTTTCCCGGTAATCCGTATTTGTA (site GTATGGACTTA)", "recombinant UMI read abundance (log10)": 0.0258},
      {"sequence": "GTATGCACATGGACCGGTTTTCCCGGTAATCCGTATTTGTA (site GTATGTACTTA)", "recombinant UMI read abundance (log10)": 0.274},
      {"sequence": "GTATGCACATGGACCGGTTTTCCCGGTAATCCGTATTTGTA (site GTATTCACTTA)", "recombinant UMI read abundance (log10)": 1.3},
      {"sequence": "GTATGCACATGGACCGGTTTTCCCGGTAATCCGTATTTGTA (site GTCTGCACTTA)", "recombinant UMI read abundance (log10)": 0.0377},
      {"sequence": "GTATGCACATGGACCGGTTTTCCCGGTAATCCGTATTTGTA (site GTGTGCACTTA)", "recombinant UMI read abundance (log10)": 0.384},
      {"sequence": "GTATGCACATGGACCGGTTTTCCCGGTAATCCGTATTTGTA (site GTTTGCACTTA)", "recombinant UMI read abundance (log10)": 0}
    ]}
  ]
}
